The test system of assay [1] is CL 6188 (Acinetobacter baumanii; Oxa40). The assay can be described thus: microbe, parasite or virus in culture. As to conditions: Acinetobacter baumannii, read-out: Imipenem MIC.
Source text: (§1) The assay determines the concentration of a β-lactamase inhibitor required to reduce the MIC of a β-lactam antibiotic by one-half, one-quarter, one-eighth, one-sixteenth and one-thirty-second against strains of bacteria normally resistant to the antibiotic in question. This is accomplished by titrating the inhibitor (BLI=beta-lactamase inhibitor) in a serial dilution across a microtiter plate while at the same time titrating the antibiotic (AB) in a serial dilution down the microtiter plate and then inoculating the plate with the bacterial strain in question and allowing the bacteria to grow up overnight. Each well in this microplate checkerboard contains a different combination of concentrations of the inhibitor and the antibiotic allowing a full determination of any synergy between the two.
(§2) 100 μL is serially diluted from row A to row G of each MIC 2000 plate. […] 100 μL is removed from each well in row G of each MIC 2000 plate. […] 100 μL is serially diluted from column 1 to column 11 of each MIC 2000 plate. […] Plates are left at 37° C. for about 20 hours and scored for growth by eye. […]
(§3) Plates are scored for growth in each well. End points (MICs) where there is no growth in each row are determined and the concentrations of AB and the test BLI at each of these growth negative wells are then used to determine levels of synergy.
Assay [2] has as its system CL 5701 (Pseudomonas aeruginosa; Pa AmpC). The assay can be described thus: microbe, parasite or virus in culture. Particulars: read-out: Imipenem MIC.
Source text: as §1, §2, §3

Values after ≈ are worked out from the molar mass of the structure shown.

In the case of `C[C@@H](O)[C@H]1C(=O)N2C(C(=O)O)=C(SCCN=CN)C[C@H]12` [Imipenem], the results for the MIC in assay [1] and in assay [2] were 128 µg/mL (≈ 428 µM) and 20 µg/mL (≈ 66.8 µM), respectively.

These data come from patent publication US20100317625A1, “NOVEL SULFONAMIDOMETHYLP[…] BETA-LACTAMASE” (priority 2006, published 2010).
